From patent US20080269251A1, “Substituted Pyrazinone Derivatives as Alpha2C-Adrenoreceptor Antagonists” (priority 2005, published 2008)

Assays:
[1] = target: T1, human adrenergic-α2C receptor (Homo sapiens, UniProt P18825); assay: Radioligand binding experiment for hα2C-adrenoceptor ([3H]raulwolscine); settings: [3H]raulwolscine 1 nM, 60 minutes at 25° C.; for IC50: read-out: h-α2C pIC50 (converted)
T1 construct: expressed in transfected cells; host or cells: CHO cells, stably transfected; membrane preparation
T1 sequence (P18825 1-462): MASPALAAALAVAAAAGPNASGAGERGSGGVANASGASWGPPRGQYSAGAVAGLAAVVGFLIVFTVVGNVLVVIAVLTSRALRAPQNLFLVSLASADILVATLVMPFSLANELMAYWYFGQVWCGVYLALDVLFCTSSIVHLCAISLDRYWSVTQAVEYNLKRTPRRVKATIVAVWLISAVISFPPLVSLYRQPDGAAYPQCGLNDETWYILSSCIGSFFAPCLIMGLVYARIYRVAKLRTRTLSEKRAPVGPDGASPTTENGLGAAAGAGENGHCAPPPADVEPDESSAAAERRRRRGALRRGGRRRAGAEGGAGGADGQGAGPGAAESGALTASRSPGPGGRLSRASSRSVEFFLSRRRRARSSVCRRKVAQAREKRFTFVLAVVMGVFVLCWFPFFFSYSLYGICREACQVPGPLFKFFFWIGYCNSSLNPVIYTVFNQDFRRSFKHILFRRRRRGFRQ
Description: (§1) The interaction of the compounds of Formula (I) with α2C-adrenoceptor receptors was assessed in in vitro radioligand binding experiments. In general, a low concentration of a radioligand with a high binding affinity for a particular receptor or transporter is incubated with a sample of a tissue preparation enriched in a particular receptor or transporter or with a preparation of cells expressing cloned human receptors in a buffered medium. During the incubation, the radioligand binds to the receptor or transporter. When equilibrium of binding is reached, the receptor bound radioactivity is separated from the non-bound radioactivity, and the receptor- or transporter-bound activity is counted. The interaction of the test compounds with the receptor is assessed in competition binding experiments. Various concentrations of the test compound are added to the incubation mixture containing the receptor- or transporter preparation and the radioligand. The test compound in proportion to its binding affinity and its concentration inhibits binding of the radioligand. The radioligand used for […] receptor binding was [^3H]-raulwolscine.
(§2) CHO cells, stabile transfected with human adrenergic-α2A, -α2B or α2C receptor cDNA, were cultured in Dulbecco's Modified Eagle's Medium (DMEM)/Nutrient mixture Ham's F12 (ratio 1:1)(Gibco, Gent-Belgium) supplemented with 10% heat inactivated fetal calf serum (Life Technologies, Merelbeke-Belgium) and antibiotics (100 IU/ml penicillin G, 100 μg/ml streptomycin sulphate, 110 μg/ml pyruvic acid and 100 μg/ml L-glutamine). One day before collection, cells were induced with 5 mM sodiumbutyrate. Upon 80-90% of confluence, cells were scraped in phosphate buffered saline without Ca^2+ and Mg^2+ and collected by centrifugation at 1500×g for 10 minutes. The cells were homogenised in Tris-HCl 50 mM using an Ultraturrax homogenizer and centrifuged for 10 minutes at 23,500×g. The pellet was washed once by resuspension and rehomogenization and the final pellet was resuspended in Tris-HCl, divided in 1 ml aliquots and stored at −70° C.
(§3) Membranes were thawed and re-homogenized in incubation buffer (glycylglycine 25 mM, pH 8.0). In a total volume of 500 μl, 2-10 μg protein was incubated with [^3H]raulwolscine (NET-722) (New England Nuclear, USA) (1 nM final concentration) with or without competitor for 60 minutes at 25° C. followed by rapid filtration over GF/B filter using a Filtermate196 harvester (Packard, Meriden, Conn.). Filters were rinsed extensively with ice-cold rinsing buffer (Tris-HCl 50 mM pH 7.4). Filter-bound radioactivity was determined by scintillation counting in a Topcount (Packard, Meriden, Conn.) and results were expressed as counts per minute (cpm). Non-specific binding was determined in the presence of 1 μM oxymetazoline for hα2A- and hα2B receptors and 1 μM spiroxatrine for hα2C receptors.
(§4) Data from assays in the presence of compound were calculated as a percentage of total binding measured in the absence of test compound. Inhibition curves, plotting percent of total binding versus the log value of the concentration of the test compound, were automatically generated, and sigmoidal inhibition curves were fitted using non-linear regression. The pIC50 values of test compounds were derived from individual curves.

[2] = target: T2, human adrenergic-α2A receptor (Homo sapiens, UniProt P08913); assay: Radioligand binding experiment for hα2A-adrenergic receptor ([3H]raulwolscine); settings: [3H]raulwolscine 1 nM, 60 minutes at 25° C.; for IC50: read-out: h-α2A pIC50 (converted)
T2 construct: expressed in transfected cells; host or cells: CHO cells, stably transfected; membrane preparation
T2 sequence (P08913 1-465): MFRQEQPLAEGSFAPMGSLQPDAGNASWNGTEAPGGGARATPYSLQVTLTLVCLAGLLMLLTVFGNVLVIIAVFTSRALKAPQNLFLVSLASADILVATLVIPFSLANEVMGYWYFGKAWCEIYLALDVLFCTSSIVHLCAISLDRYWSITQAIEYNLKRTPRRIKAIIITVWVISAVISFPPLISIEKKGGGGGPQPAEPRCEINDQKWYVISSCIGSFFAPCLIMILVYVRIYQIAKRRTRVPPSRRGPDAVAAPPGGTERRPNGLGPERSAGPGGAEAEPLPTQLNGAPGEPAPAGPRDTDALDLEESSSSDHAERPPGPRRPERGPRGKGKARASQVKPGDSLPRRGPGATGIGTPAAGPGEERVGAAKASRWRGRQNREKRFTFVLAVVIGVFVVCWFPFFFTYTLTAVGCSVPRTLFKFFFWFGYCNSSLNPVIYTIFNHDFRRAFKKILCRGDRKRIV
Description: as §1, §2, §3, §4

[3] = target: T3, 5HT-transporter (Homo sapiens, UniProt P31645); assay: Binding experiment for the 5HT-transporter ([3H]paroxetine, human platelet membranes); settings: [3H]paroxetine 0.5 nM, 60 min at 25° C.; for IC50: read-out: h-5HTT pIC50 (converted)
T3 construct: Human platelet membranes (Oceanix Biosciences Corporation, Hanover, Md., USA) were thawed; tissue Oceanix Biosciences Corporation, Hanover, Md., USA; host or cells: human platelet membranes
T3 sequence (P31645 whole entry): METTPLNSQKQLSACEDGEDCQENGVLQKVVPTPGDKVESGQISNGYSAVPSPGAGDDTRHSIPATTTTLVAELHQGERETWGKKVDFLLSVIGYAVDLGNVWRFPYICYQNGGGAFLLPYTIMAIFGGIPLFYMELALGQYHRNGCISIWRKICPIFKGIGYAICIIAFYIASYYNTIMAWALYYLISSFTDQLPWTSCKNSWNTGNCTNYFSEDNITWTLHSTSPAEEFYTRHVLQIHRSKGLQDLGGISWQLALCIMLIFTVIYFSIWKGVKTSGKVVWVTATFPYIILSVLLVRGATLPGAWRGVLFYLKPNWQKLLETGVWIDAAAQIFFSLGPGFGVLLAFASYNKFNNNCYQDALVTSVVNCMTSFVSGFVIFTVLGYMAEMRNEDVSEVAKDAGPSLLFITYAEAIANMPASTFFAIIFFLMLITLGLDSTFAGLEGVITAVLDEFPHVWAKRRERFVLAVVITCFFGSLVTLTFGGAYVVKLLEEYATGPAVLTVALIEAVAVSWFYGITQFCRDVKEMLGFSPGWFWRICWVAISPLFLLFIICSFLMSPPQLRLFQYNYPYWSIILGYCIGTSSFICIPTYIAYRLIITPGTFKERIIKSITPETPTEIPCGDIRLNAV
Description: as §1
Human platelet membranes (Oceanix Biosciences Corporation, Hanover, Md., USA) were thawed, diluted in buffer (Tris-HCl 50 mM, 120 mM NaCl and 5 mM KCl) and quickly (max 3 s) homogenised with an Ultraturrax homogenizer. […] Incubation was stopped by rapid filtration of the incubation mixture over GF/B filters, pre-wetted with 0.1% polyethyleneamine, using a Filtermate196 harvester (Packard, Meriden, Conn.). Filters were rinsed extensively with ice-cold buffer and radioactivity on the filters was counted in a Topcount liquid scintillation counter (Packard, Meriden, Conn.). Data were expressed as cpm. Imipramine (at 1 μM final concentration) was used to determine the non-specific binding.
as §4

| Compound | IC50 [1] | IC50 [2] | IC50 [3] | h-α2C pIC50 [1] | h-α2A pIC50 [2] | h-5HTT pIC50 [3] |
| --- | --- | --- | --- | --- | --- | --- |
| CC(C)(C)OC(=O)NCc1ccc(Cn2ccnc(NC3CCN(Cc4ccc5ccccc5c4)CC3)c2=O)cc1 [1-34] | 0.1 µM | 0.251 µM | 0.0794 µM |  |  |  |
| CN(CCCn1ccnc(NC2CCN(Cc3ccc4ccccc4c3)CC2)c1=O)C(=O)OC(C)(C)C [1-35] | 0.0251 µM | 0.316 µM | 0.0398 µM |  |  |  |
| COC(=O)CN(C)Cc1ccc(-n2ccnc(NC3CCN(Cc4ccc5ccccc5c4)CC3)c2=O)cc1 [1-36] | 0.0501 µM | 0.501 µM | 0.158 µM |  |  |  |
| COC(=O)CCCC(=O)NCc1ccc(-n2ccnc(NC3CCN(Cc4ccc5ccccc5c4)CC3)c2=O)cc1 [1-37] | 0.0398 µM | 0.631 µM | 0.0126 µM |  |  |  |
| C#CCN(C)C(=O)Cn1ccnc(NC2CCN(Cc3ccc4ccccc4c3)CC2)c1=O [1-38] | 0.0631 µM | 0.398 µM | 1.58 µM |  |  |  |
| CN(C)CCN(C)Cc1ccc(-n2ccnc(NC3CCN(Cc4ccc5ccccc5c4)CC3)c2=O)cc1 [1-39] | 0.0158 µM | 0.0794 µM | 0.0631 µM |  |  |  |
| CCCNC(=O)NCc1ccc(-n2ccnc(NC3CCN(Cc4ccc5ccccc5c4)CC3)c2=O)cc1 [1-40] | 0.1 µM | 1.26 µM | 0.0501 µM |  |  |  |
| O=C(NCc1ccc(-n2ccnc(NC3CCN(Cc4ccc5ccccc5c4)CC3)c2=O)cc1)NCC1CCCCC1 [1-41] |  |  |  | 7.2 | 6.2 | 7.2 |
| O=C(Cc1ccccc1)NCc1ccc(-n2ccnc(NC3CCN(Cc4ccc5ccccc5c4)CC3)c2=O)cc1 [1-42] | 0.0316 µM | 0.501 µM | 0.00501 µM |  |  |  |
| O=C(CCc1ccccc1)NCc1ccc(-n2ccnc(NC3CCN(Cc4ccc5ccccc5c4)CC3)c2=O)cc1 [1-43] | 0.0398 µM | 0.251 µM | 0.00631 µM |  |  |  |
| CN(C)CCNC(=O)NCc1ccc(-n2ccnc(NC3CCN(Cc4ccc5ccccc5c4)CC3)c2=O)cc1 [1-44] | 0.0126 µM | 0.0631 µM | 0.00794 µM |  |  |  |
| COCCNC(=O)NCc1ccc(-n2ccnc(NC3CCN(Cc4ccc5ccccc5c4)CC3)c2=O)cc1 [1-45] | 0.0316 µM | 0.398 µM | 0.0251 µM |  |  |  |
| COCCCNC(=O)NCc1ccc(-n2ccnc(NC3CCN(Cc4ccc5ccccc5c4)CC3)c2=O)cc1 [1-46] | 0.0398 µM | 0.501 µM | 0.0631 µM |  |  |  |

More lines, now with the values ahead:

| IC50 [1] | IC50 [2] | IC50 [3] | h-α2C pIC50 [1] | h-α2A pIC50 [2] | h-5HTT pIC50 [3] | Compound |
| --- | --- | --- | --- | --- | --- | --- |
|  |  |  | 7.5 | 6.3 | 7.6 | COC(=O)CCNC(=O)NCc1ccc(-n2ccnc(NC3CCN(Cc4ccc5ccccc5c4)CC3)c2=O)cc1 [1-47] |
| 0.0398 µM | 0.316 µM | 0.01 µM |  |  |  | O=C(NCc1ccccc1)NCc1ccc(-n2ccnc(NC3CCN(Cc4ccc5ccccc5c4)CC3)c2=O)cc1 [1-48] |
| 0.0398 µM | 0.501 µM | 0.0398 µM |  |  |  | Cc1ccc(CNC(=O)NCc2ccc(-n3ccnc(NC4CCN(Cc5ccc6ccccc6c5)CC4)c3=O)cc2)cc1F [1-49] |
| 0.2 µM | 1.26 µM | 0.0631 µM |  |  |  | O=C(NCc1ccc(-n2ccnc(NC3CCN(Cc4ccc5ccccc5c4)CC3)c2=O)cc1)NCc1cc(F)cc(C(F)(F)F)c1 [1-50] |
|  |  |  | 7.1 | 6.4 | 7.8 | O=C(NCCCc1ccccc1)NCc1ccc(-n2ccnc(NC3CCN(Cc4ccc5ccccc5c4)CC3)c2=O)cc1 [1-51] |
|  |  |  | 7.2 | 6.3 | 8.1 | O=C(NCc1ccc(-n2ccnc(NC3CCN(Cc4ccc5ccccc5c4)CC3)c2=O)cc1)Nc1ccccc1 [1-52] |
| 0.02 µM | 0.631 µM | 0.00794 µM |  |  |  | O=C(NCCCn1ccnc(NC2CCN(Cc3ccc4ccccc4c3)CC2)c1=O)Nc1ccccc1 [1-53] |
|  |  |  | 6.7 | 6.0 | 6.8 | O=C(NCc1ccc(-n2ccnc(NC3CCN(Cc4ccc5ccccc5c4)CC3)c2=O)cc1)Nc1cc(Cl)ccc1Cl [1-54] |
| 0.1 µM | 0.631 µM | 0.0631 µM |  |  |  | CCOC(=O)N1CCC(NC(=O)NCc2ccc(-n3ccnc(NC4CCN(Cc5ccc6ccccc6c5)CC4)c3=O)cc2)CC1 [1-55] |
| 0.0251 µM | 0.251 µM | 0.0158 µM |  |  |  | NC(=O)CCNCc1ccc(-n2ccnc(NC3CCN(Cc4ccc5ccccc5c4)CC3)c2=O)cc1 [1-56] |
| 0.0158 µM | 0.251 µM | 0.0501 µM |  |  |  | CN(CC(=O)N(C)C)Cc1ccc(-n2ccnc(NC3CCN(Cc4ccc5ccccc5c4)CC3)c2=O)cc1 [1-57] |
| 0.00794 µM | 0.0794 µM | 0.00631 µM |  |  |  | CCN(CC)CCC(=O)NCc1ccc(-n2ccnc(NC3CCN(Cc4ccc5ccccc5c4)CC3)c2=O)cc1 [1-58] |
| 0.0398 µM | 0.316 µM | 0.0316 µM |  |  |  | CN(C)C(=O)CCC(=O)NCc1ccc(-n2ccnc(NC3CCN(Cc4ccc5ccccc5c4)CC3)c2=O)cc1 [1-59] |
| 0.0251 µM | 0.2 µM | 0.01 µM |  |  |  | CC(=O)NCCN(C)Cc1ccc(-n2ccnc(NC3CCN(Cc4ccc5ccccc5c4)CC3)c2=O)cc1 [1-60] |
| 0.0126 µM | 0.2 µM | 0.01 µM |  |  |  | CC(=O)NCCNCc1ccc(-n2ccnc(NC3CCN(Cc4ccc5ccccc5c4)CC3)c2=O)cc1 [1-61] |
|  |  |  | 7.3 | 6.4 | 7.5 | CC(=O)NCCCC(=O)NCc1ccc(-n2ccnc(NC3CCN(Cc4ccc5ccccc5c4)CC3)c2=O)cc1 [1-62] |
| 0.0251 µM | 0.158 µM | 0.0631 µM |  |  |  | CN(C(=O)Cn1ccnc(NC2CCN(Cc3ccc4ccccc4c3)CC2)c1=O)c1ccccc1 [1-63] |
| 0.0316 µM | 0.158 µM | 0.126 µM |  |  |  | O=C(Cn1ccnc(NC2CCN(Cc3ccc4ccccc4c3)CC2)c1=O)Nc1ccccc1 [1-64] |
